Experimental data taken from paper PMC11214487, “YZL-51N functions as a selective inhibitor of SIRT7 by NAD^+ competition to impede DNA damage repair” (iScience, 2024).
Where two headings read alike, the source gives them in different places.

Legend:
SIRT7 = biological target: T1, SIRT7 (Homo sapiens, UniProt Q9NRC8); assay: Surface plasmon resonance (SPR) binding assay
T1 construct: His-tagged full length SIRT7 protein expression from BL21 bacterial cells; His; made in house; host or cells: E. coli BL21
T1 sequence (Q9NRC8 1-400): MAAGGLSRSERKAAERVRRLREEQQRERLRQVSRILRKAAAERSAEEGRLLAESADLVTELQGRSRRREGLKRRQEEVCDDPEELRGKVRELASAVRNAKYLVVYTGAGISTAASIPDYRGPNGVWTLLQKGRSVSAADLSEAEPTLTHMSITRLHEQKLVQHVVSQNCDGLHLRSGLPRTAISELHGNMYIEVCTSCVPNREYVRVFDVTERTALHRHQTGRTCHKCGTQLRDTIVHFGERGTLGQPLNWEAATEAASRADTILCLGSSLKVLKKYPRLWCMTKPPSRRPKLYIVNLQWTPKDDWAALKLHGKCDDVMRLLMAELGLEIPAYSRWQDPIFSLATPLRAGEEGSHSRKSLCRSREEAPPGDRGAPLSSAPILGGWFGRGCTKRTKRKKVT
Procedure: All SPR measurements were performed on Biacore T200 instrument (GE Healthcare) with running buffer (PBS+5% DMSO) at room temperature. The bacterially purified His-SIRT7 was covalently immobilized onto Series S Sensor Chip CM5 by a standard amino-coupling procedure in 10 mM sodium acetate (pH 5.5). Two-fold serial dilutions of YZL-51N or NAD^+ in 5% DMSO passed through the sensor chip at 30 μL/min for 120 s, followed by 240 s of dissociation flow. The KD value was calculated based on the concentration dependence of the observed steady-state response using Biacore T200 Evaluation software Version 1.0 (GE Healthcare).

HT29 = assay: CCK-8 cell proliferation assay; assay type: cell-based; conditions: Homo sapiens, HT-29; HT29, 48 h
Procedure: (§1) The plate was added with 10 μL CCK-8 solution to each well and incubated for 2 h at 37°C. The absorbance was measured at 450 nm using a microtiter plate reader (BioTek).

SW620 = assay: CCK-8 cell proliferation assay; assay type: cell-based; conditions: Homo sapiens, SW-620; SW620, 48 h
Procedure: as §1

HCT116 = assay: CCK-8 cell proliferation assay; assay type: cell-based; conditions: Homo sapiens, HCT-116; HCT116, 48 h
Procedure: as §1

Procedure for HCT116 cells: Cells were seeded into 96 well plates (4,000 cells/well). […] The cells were then washed and re-cultured in fresh medium for 48 h. […] Formazan were generated by the addition of 100 μL DMSO and shaking for 30 min. The absorbance of samples was measured at 570 nm using a microtiter plate reader (BioTek).

COC(=O)/C(=C\C(=O)c1ccc(O)c(O)c1)c1ccc(O)c(O)c1 [YZL-51N]
disassociation rate (koff) (SIRT7): 0.0006315 s⁻¹
Kd (SIRT7; immobilized His-SIRT7): 1.02 µM
kon (SIRT7; read-out: association rate (kon)): 618 M⁻¹ s⁻¹
IC50 (HT29): 47.5 µM
IC50 (SW620): 28.6 µM
IC50 (HCT116): 37.5 µM
Cell proliferation (%, Mean ± SD) (HCT116 cells; single agent 5 μM): 94.8 ± 5.0%
Cell proliferation (%, Mean ± SD) (HCT116 cells; single agent 10 μM): 86.9 ± 5.7%
Cell proliferation (%, Mean ± SD) (HCT116 cells; single agent 20 μM): 76.4 ± 6.0%
Cell proliferation (%, Mean ± SD) (HCT116 cells; single agent 40 μM): 42.8 ± 4.8%
Cell proliferation (%, Mean ± SD) (HCT116 cells; single agent 80 μM): 29.9 ± 5.4%
Cell proliferation (%, Mean ± SD) (HCT116 cells; single agent 160 μM): 17.7 ± 5.3%
